Calls of active or inactive are those of the source. Rule as the data show it, for most assays here: actives have a measured IC50 and inactives only a lower limit.
Assays:
[1] = Luminescence Cell-Based Dose Confirmation HTS to Identify Activators of 5'UTR Stem-Loop Driven Alpha-Synuclein mRNA Translation in H4 Neuroglioblastoma Cells. [Related pubchem assays: 1829 (Project Summary), 1814 (Primary HTS)]; assay type: functional
[2] = tested on: H4; experiment: Luminescence Cell-Based Dose Response HTS to Identify Activators of 5'UTR Stem-Loop Driven Prion Protein mRNA Translation in H4 Neuroglioblastoma Cells. [Related pubchem assays: 1829 (Project Summary), 1814 (Primary HTS)]; assay type: functional; settings: Homo sapiens
[3] = growth suppression of PTEN-null colon cells, dose response, cell-based, HCT116 PTEN knockout (AID 1047); assay type: functional;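 also: HCT116 colon tumor cells with PTEN knocked out; cells exposed to compound for 60 hours before readout; potency for loss of cell viability measured by luminescence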
[4] = cytotoxicity toward NIH3T3 fibroblasts, dose response, counter-screen, cell-based, ATP luminescence, mouse fibroblasts (AID 2010); assay type: functional;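 also: cells exposed to compound for about 90 hours before reading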
[5] = target: T1, Caspase-3 (Homo sapiens, UniProt P42574); assay type: functional;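 also: Dose-response selectivity test against caspase-3 for candidate inhibitors of sentrin-specific proteases (SENPs)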
T1 sequence (P42574 whole entry): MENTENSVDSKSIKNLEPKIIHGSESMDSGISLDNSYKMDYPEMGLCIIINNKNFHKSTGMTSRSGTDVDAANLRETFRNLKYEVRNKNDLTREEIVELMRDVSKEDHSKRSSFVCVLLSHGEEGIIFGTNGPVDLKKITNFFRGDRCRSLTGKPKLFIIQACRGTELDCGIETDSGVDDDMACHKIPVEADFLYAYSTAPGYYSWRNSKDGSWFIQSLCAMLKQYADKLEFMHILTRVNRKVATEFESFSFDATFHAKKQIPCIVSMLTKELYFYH

[6] = target: T2, Sentrin-specific protease 8 (Homo sapiens, UniProt Q96LD8); assay type: functional;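 also: luminescence read-out of SENP8 inhibition, dose-response confirmation following an ultra-high-throughput screen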
T2 sequence (Q96LD8 whole entry): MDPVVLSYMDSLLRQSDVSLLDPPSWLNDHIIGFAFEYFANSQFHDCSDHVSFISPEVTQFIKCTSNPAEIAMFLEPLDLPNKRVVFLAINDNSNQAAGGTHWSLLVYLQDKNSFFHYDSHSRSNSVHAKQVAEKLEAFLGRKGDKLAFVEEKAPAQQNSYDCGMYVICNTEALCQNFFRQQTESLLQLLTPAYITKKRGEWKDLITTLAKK

[7] = tested on: Vero; experiment: Vero cell cytotoxicity, cytotoxicity control for flavivirus capping enzyme inhibitors (AID 588742); assay type: functional; settings: Chlorocebus sabaeus
[8] = target: T3, Tyrosine-protein phosphatase non-receptor type 22 (Homo sapiens, UniProt Q9Y2R2); experiment: LYP1 Fluorescent Assay using OMFP substrate for In Vitro dose response studies. [Related pubchem assays (depositor defined):AID1779, AID1784, AID435024]
T3 sequence (Q9Y2R2 whole entry): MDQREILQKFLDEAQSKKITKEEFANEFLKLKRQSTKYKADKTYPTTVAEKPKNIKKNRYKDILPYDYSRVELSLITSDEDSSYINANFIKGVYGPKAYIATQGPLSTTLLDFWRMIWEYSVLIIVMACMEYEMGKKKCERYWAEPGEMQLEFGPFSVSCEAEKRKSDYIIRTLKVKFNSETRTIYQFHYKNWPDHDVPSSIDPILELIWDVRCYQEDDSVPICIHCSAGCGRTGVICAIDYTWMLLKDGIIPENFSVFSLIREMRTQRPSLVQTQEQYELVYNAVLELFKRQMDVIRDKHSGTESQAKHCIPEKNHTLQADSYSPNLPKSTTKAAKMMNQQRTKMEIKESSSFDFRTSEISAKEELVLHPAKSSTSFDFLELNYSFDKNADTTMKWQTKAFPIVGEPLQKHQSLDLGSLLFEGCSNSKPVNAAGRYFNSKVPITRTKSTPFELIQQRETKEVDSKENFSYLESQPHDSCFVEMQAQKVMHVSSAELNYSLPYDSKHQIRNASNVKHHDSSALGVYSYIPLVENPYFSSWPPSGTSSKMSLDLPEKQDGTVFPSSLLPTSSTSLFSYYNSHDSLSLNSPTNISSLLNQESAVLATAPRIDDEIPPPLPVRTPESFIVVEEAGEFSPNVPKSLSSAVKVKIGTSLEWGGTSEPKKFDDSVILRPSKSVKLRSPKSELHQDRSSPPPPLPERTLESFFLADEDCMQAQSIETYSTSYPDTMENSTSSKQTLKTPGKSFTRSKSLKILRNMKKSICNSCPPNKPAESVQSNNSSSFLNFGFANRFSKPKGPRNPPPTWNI

[9] = target: T4, Tyrosine-protein phosphatase non-receptor type 7 (Homo sapiens, UniProt P35236); assay type: functional
T4 sequence (P35236 whole entry): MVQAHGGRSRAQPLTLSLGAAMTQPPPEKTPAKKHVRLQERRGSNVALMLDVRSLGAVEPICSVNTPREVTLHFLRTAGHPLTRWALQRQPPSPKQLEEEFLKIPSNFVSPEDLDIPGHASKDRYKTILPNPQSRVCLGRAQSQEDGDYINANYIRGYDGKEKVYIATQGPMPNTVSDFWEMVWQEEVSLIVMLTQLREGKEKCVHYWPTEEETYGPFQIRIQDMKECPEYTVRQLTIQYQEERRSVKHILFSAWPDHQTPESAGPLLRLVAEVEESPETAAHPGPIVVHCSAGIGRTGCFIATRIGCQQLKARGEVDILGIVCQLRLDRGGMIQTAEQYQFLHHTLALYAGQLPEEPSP

[10] = target: T5, Voltage-gated N-type calcium channel alpha-1B subunit/Amyloid beta A4 precursor protein-binding family A member 1 (Homo sapiens, UniProt Q00975+Q02410); assay type: protein assay
[11] = target: T5, Voltage-gated N-type calcium channel alpha-1B subunit/Amyloid beta A4 precursor protein-binding family A member 1; assay type: protein assay; remark: listed apart in the source
[12] = target: T3, Tyrosine-protein phosphatase non-receptor type 22; experiment: SAR LYP1 Fluorescent Assay using pCAP substrate for In Vitro dose response studies - Set 2. [Related pubchem assays (depositor defined):AID1779, AID1784, AID2135, AID449727]; assay type: functional
[13] = target: T3, Tyrosine-protein phosphatase non-receptor type 22; assay type: functional
[14] = target: T3, Tyrosine-protein phosphatase non-receptor type 22; experiment: SAR LYP1 Fluorescent Assay using OMFP substrate for In Vitro dose response studies - Set 3. [Related pubchem assays (depositor defined):AID1779, AID1784, AID2140, AID2686]; assay type: functional
[15] = target: T4, Tyrosine-protein phosphatase non-receptor type 7; experiment: HePTP (PTPN7) phosphatase inhibitor potency, SAR follow-up, biochemical, set 2 (AID 449736); assay type: functional

T5 sequence (Q00975 whole entry): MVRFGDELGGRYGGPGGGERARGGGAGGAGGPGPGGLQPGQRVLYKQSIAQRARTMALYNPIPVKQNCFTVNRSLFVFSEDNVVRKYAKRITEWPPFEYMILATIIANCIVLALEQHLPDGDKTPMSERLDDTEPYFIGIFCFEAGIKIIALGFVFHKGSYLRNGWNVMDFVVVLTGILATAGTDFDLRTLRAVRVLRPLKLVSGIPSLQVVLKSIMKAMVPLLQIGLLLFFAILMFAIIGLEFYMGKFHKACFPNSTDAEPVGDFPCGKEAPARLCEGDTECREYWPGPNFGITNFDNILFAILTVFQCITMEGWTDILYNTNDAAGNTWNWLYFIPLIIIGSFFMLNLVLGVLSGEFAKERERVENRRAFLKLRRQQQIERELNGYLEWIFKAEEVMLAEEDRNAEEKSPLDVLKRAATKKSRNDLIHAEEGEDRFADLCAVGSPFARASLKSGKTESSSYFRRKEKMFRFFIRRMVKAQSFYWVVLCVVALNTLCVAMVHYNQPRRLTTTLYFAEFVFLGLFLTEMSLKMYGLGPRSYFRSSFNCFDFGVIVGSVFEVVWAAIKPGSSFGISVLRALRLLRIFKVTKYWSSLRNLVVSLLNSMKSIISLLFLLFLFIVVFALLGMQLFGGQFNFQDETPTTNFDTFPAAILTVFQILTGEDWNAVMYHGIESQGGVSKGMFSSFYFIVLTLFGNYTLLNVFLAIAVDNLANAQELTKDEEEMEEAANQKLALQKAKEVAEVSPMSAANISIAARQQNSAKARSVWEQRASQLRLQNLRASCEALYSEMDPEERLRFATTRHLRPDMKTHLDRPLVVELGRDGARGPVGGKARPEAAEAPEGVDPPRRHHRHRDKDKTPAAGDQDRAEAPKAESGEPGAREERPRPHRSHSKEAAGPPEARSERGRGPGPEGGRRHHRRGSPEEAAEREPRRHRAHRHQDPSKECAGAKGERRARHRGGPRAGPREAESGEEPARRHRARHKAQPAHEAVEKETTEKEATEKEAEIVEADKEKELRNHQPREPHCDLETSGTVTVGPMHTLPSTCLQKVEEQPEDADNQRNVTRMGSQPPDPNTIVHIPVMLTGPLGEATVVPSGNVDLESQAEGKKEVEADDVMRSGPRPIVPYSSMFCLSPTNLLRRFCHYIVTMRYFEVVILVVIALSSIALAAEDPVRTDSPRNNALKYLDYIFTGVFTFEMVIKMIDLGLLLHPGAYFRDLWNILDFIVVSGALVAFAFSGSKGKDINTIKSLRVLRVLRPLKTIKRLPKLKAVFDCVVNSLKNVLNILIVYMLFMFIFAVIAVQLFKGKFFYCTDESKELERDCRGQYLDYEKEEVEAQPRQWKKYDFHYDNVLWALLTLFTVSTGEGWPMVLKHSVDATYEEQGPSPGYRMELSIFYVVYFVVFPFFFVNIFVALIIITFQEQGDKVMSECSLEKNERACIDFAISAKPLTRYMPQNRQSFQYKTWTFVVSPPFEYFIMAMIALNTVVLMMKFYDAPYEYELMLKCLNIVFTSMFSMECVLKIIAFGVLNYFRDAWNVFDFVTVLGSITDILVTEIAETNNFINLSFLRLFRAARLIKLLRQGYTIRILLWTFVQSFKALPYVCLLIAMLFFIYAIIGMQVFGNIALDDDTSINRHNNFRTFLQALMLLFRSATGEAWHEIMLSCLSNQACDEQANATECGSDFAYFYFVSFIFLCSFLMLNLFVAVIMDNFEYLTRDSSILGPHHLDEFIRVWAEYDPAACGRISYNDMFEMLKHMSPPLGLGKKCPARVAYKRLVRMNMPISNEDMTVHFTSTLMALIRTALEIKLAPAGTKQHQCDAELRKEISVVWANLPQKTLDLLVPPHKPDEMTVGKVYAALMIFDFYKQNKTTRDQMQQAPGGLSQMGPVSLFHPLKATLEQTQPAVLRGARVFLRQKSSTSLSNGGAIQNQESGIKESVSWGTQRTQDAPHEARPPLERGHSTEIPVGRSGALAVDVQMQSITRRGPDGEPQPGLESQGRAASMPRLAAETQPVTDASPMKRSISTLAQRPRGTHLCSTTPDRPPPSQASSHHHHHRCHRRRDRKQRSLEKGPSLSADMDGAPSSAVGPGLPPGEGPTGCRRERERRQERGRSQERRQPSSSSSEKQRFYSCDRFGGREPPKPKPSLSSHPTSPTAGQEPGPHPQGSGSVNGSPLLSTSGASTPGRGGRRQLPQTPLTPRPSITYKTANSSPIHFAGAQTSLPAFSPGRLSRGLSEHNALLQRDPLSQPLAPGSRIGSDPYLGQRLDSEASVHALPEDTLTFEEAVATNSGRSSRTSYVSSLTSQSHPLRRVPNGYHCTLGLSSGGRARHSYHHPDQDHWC
T5 sequence (Q02410 whole entry): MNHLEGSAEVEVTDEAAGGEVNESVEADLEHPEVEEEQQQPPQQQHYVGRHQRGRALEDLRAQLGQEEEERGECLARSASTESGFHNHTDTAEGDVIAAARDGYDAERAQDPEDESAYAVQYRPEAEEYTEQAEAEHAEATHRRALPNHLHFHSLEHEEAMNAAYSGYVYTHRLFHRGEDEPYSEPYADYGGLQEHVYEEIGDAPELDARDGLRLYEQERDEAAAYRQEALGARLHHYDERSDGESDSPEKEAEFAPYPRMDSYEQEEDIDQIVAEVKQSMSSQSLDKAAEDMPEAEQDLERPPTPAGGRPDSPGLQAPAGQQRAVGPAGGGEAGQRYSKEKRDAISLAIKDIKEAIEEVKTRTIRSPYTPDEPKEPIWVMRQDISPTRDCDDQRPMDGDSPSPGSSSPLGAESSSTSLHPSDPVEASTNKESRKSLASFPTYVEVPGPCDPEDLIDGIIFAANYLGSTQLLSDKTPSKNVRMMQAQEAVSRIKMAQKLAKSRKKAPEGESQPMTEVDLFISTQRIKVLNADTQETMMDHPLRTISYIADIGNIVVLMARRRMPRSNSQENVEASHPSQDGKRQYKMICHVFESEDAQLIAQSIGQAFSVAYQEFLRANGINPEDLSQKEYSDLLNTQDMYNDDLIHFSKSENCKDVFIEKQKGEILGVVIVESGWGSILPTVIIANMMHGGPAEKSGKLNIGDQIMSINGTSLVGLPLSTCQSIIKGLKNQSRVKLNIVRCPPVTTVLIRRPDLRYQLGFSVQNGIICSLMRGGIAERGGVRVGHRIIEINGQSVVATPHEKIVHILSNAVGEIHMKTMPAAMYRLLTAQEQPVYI

COc1ccc(Nc2ccc3c(c2)=NC2(CCCCC2)[N+]=3[O-])cc1
EC50 [1]: > 120 µM (not active) | EC50 [2]: 79.5 µM (active) | EC50 [3]: 2.49 µM (active) | EC50 [4]: 9.19 µM (active) | IC50 [5]: 88.4 µM (active) | IC50 [6]: 14.8 µM (active) | CC50 [7]: 10.8 µM (active)

COc1ccc(/C=C2\SC(=S)N(CCC(=O)Nc3ccc(C(=O)O)cc3)C2=O)cc1OC
IC50 [8]: 4.66 µM (active) | IC50 [9]: 3.78 µM (active) | IC50 [10]: 7.89 µM (active) | IC50 [11]: > 50 µM (inactive) | IC50 [12]: 1.38 µM (active) | IC50 [13]: 3.74 µM (active) | IC50 [14]: 4.09 µM (active) | IC50 [15]: 0.312 µM (active)

— ChEMBL document CHEMBL1201862, “PubChem BioAssay data set” (2004)
